# From article PMC9367672, “In vitro differences in toddalolactone metabolism in various species and its effect on cytochrome P450 expression” (Pharmaceutical Biology, 2022)
# Experiments:
# CYP1A1 = experiment: Western blot of CYP1A1 protein expression in HepG2 cells; assay type: cell-based; conditions: 50 μM, 24 h, vs control (0 μM), p < 0.05
# Description: Hep G2 cells were seeded into 100 mm Petri dishes and treated with different concentrations of toddalolactone (0, 10 and 50 µmol/L) for 24 h. Total protein was extracted using RIPA lysis buffer containing proteinase inhibitor (BestBio, Shanghai, China). After the protein concentration was measured using a bicinchoninic acid (BCA) assay kit (Beyotime, Shanghai, China), samples were electrophoretically transferred to polyvinylidene difluoride (PVDF) membranes. After blocking with TTBS (0.5% Tween 20, 10 mM Tris-HCl, pH 7.5, 150 mM NaCl) containing 5% non-fat milk for 1 h at room temperature, the membrane was incubated with antibodies against β-Actin, CYP1A1, and CYP3A5 overnight at 4 °C. Then, membranes were washed with TBS (10 mM Tris-HCl, pH 7.5, 150 mM NaCl) containing 0.05% Tween 20 three times and further incubated with HRP-conjugated secondary antibodies against rabbit (for β-actin, CYP1A1 and CYP3A5) for 1 h at room temperature.
# [1] = Enzyme kinetics of toddalolactone metabolism in monkey liver microsomes (oxidative metabolism and glucuronidation); assay type: in vitro ADME; conditions: monkey, liver microsomes, pH 7.4, MLMs, Vmax/Km
# Description: (§1) The CYP reaction system (200 μL) consisted of 0.1 M potassium phosphate buffer (pH 7.4), an NADPH-generating system (1 mM NADPH, 10 mM G-6-P, 1 unit/mL G-6-PD, 4 mM MgCl2), and liver microsomes or recombinant human microsomes (supersomes). Each of the in vitro enzymatic assays using liver microsomes was linear with respect to incubation time and amount of protein. After a pre-incubation at 37 °C for 3 min, the reactions were initiated by adding NADP^+. After incubating for 60 min, the reactions were quenched by adding 200 μL of ice-cold acetonitrile. Samples were centrifuged at 18,000 g for 15 min at 4 °C and 10 μL of supernatant was analyzed using an HPLC system. NADPH or CYP enzyme sources were not used in the control group to ensure that the metabolic reactions were CYP- and NADPH-dependent. All incubation assays were completed in triplicate. The data are presented as mean ± standard deviation (SD).
# (§2) In the UGT reaction system, liver microsomes were incubated in 200 μL of the reaction system containing 4 mM UDPGA, 5 mM MgCl2, 20 µg/mL alamethicin, and 50 mM Tris-HCl buffer (pH 7.4). After pre-incubation at 37 °C for 3 min, UDPGA was added to the mixture to initiate the reactions. The mixtures were incubated at 37 °C for 60 min, followed by the addition of 200 μL of cold methanol to terminate the reactions. After centrifugation at 18,000 g for 15 min, 10 μL of the supernatant was analyzed by HPLC.
# (§3) The enzyme kinetics of toddalolactone in oxidative metabolism and glucuronidation were determined by incubating liver microsomes (0.2 mg/mL) or CYPs (15 nM) with different concentrations of toddalolactone (1–200 μM). The kinetic parameters including Km and Vmax were obtained by fitting the experimental data to the Michaelis–Menten equation (Equation (1)), biphasic kinetics equation (Equation (2)), or substrate inhibition equation (Equation (3)) (He et al. [2018]), and the results were graphically represented on Eadie–Hofstee plots. The in vitro intrinsic clearance (CLint) was calculated based on the Vmax/Km ratio. Metabolites were quantified using the standard curve for toddalolactone because of the absence of metabolite standards. All incubations were repeated in three independent experiments. Kinetic constants were expressed with mean ± SD: (1) V=Vmax×[S]/Km+[S] (2) V=Vmax1×[S]/Ks1+[S]+Vmax2×[S]/Ks2+[S] (3) V=Vmax×[S]/Ks+[S]+[S]^2/Ksi where v is the rate of reaction, Vmax is the estimated maximum velocity, [S] is the substrate concentration, and Km is the affinity constant of the substrate; Vmax1 and Vmax2 represent the estimated maximum velocity of the two metabolic phases; Ks1 and Ks2 represent the affinity constants for two metabolic phases; Ks and Ksi are the substrate affinity and inhibition constants, respectively.
# (§4) The enzyme kinetics in oxidative metabolism and glucuronidation of toddalolactone were studied, and preliminary experiments were performed to ensure that metabolites were formed in the linear range of both reaction time and microsomal protein concentration. The metabolite with the largest peak area was used to calculate the kinetic parameter values (Km, Vmax and CLint). Based on the results of toddalolactone metabolism in different species, the kinetic parameter values in RLMs, DLMs, MLMs, HLMs, RAMs, MIMs, PLMs, CYP1A1 and CYP3A5 were calculated using P4, P4, P4, P4, P2, P2, P4, P4 and P4 data in oxidative metabolism, respectively. In the glucuronidation reaction, the kinetic parameter values in RLMs, MLMs, HLMs, RAMs and PLMs were calculated using P5, P6, P6, P6 and P5 data, respectively.
# MLMs = experiment: as above; assay type: in vitro ADME; conditions: MLMs; for V max: toddalolactone 1–200 μM
# Description: as §1, §2, §3, §4
# CYP3A5 = CYP3A5 (Homo sapiens, UniProt P20815); experiment: Enzyme kinetics of toddalolactone metabolism by recombinant CYP3A5; conditions: P4 formation
# CYP3A5, sequence (P20815 whole entry): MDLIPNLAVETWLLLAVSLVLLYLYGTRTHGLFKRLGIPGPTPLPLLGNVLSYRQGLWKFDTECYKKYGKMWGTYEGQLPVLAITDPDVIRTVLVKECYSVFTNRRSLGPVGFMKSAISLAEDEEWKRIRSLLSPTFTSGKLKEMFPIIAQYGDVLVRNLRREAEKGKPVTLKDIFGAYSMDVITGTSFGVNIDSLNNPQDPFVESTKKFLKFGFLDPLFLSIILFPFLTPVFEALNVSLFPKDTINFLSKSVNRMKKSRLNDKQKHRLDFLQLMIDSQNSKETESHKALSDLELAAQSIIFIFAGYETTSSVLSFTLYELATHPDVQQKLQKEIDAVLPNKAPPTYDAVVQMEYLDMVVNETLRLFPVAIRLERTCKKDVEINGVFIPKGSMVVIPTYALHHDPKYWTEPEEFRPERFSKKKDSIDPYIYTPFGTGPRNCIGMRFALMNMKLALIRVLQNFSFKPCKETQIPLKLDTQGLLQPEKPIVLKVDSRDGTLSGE
# Description: The enzyme kinetics of toddalolactone in oxidative metabolism and glucuronidation were determined by incubating liver microsomes (0.2 mg/mL) or CYPs (15 nM) with different concentrations of toddalolactone (1–200 μM). The kinetic parameters including Km and Vmax were obtained by fitting the experimental data to the Michaelis–Menten equation (Equation (1)), biphasic kinetics equation (Equation (2)), or substrate inhibition equation (Equation (3)) (He et al. [2018]), and the results were graphically represented on Eadie–Hofstee plots. The in vitro intrinsic clearance (CLint) was calculated based on the Vmax/Km ratio. Metabolites were quantified using the standard curve for toddalolactone because of the absence of metabolite standards. All incubations were repeated in three independent experiments. Kinetic constants were expressed with mean ± SD: (1) V=Vmax×[S]/Km+[S] (2) V=Vmax1×[S]/Ks1+[S]+Vmax2×[S]/Ks2+[S] […]
# [2] = P450-catalyzed oxidation, P4 formation
# [3] = glucuronide metabolism, P6 formation
smiles,measurement,setting,value
COc1cc2oc(=O)ccc2c(OC)c1C[C@@H](O)C(C)(C)O [toddalolactone],induction of CYP1A1 protein expression higher than that of the control,CYP1A1,approximately 50%
same,microsomal CLint,[1]; [2],0.63 µL/min/mg
same,microsomal CLint,[1]; [3],1.21 µL/min/mg
same,K m,MLMs; [2],255.67 ± 58.29 µM
same,V max,MLMs; [2],161.4 ± 25.73 pmol/min/mg protein
same,K m,MLMs; [3],154.51 ± 42.46 µM
same,V max,MLMs; [3],187.53 ± 27.77 pmol/min/mg protein
same,K m,CYP3A5; recombinant CYP3A5 (15 nM),50.34 ± 8.62 µM
same,CLint,"CYP3A5; recombinant CYP3A5, Vmax/Km",0.013 µL/min/nmol CYP
